Data: patent US20210395239A1 (Hoffmann-La Roche Inc., priority 2018, published 2021)

Experiments:
hERG channel = biological target: T1, hERG channel (Homo sapiens, UniProt Q12809); test: hERG channel inhibition assay (patch-clamp, CHOhERG cells); type: cell-based
T1 construct: expressed in transfected cells; host or cells: CHO (Chinese hamster ovary)
Description: hERG Channel Inhibition Assay:
The hERG K^+ channels were cloned in humans and stably expressed in a CHO (Chinese hamster ovary) cell line. CHOhERG cells were used for patch-clamp (voltage-clamp, whole-cell) experiments. Cells were stimulated by a voltage pattern to activate hERG channels and conduct IKhERG currents (rapid delayed outward rectifier potassium current of the hERG channel). After the cells were stabilized for a few minutes, the amplitude and kinetics of IKhERG were recorded at a stimulation frequency of 0.1 Hz, (6 bpm). Thereafter, the test compound was added to the preparation at increasing concentrations. For each concentration, an attempt was made to reach a steady-state effect, usually, this was achieved within 3-10 min at which time the next highest concentration was applied. The amplitude and kinetics of IKhERG are recorded in each concentration of the drug which were compared to the control values (taken as 100%). (references: Redfern W S, Carlsson L, Davis A S, Lynch W G, MacKenzie I, Palethorpe S, Siegl P K, Strang I, Sullivan A T, Wallis R, Camm A J, Hammond T G. 2003; Relationships between preclinical cardiac electrophysiology, clinical QT interval prolongation and torsade de pointes for a broad range of drugs: evidence for a provisional safety margin in drug development. Cardiovasc. Res. 58:32-45, Sanguinetti M C, Tristani-Firouzi M. 2006; hERG potassium channels and cardiac arrhythmia. Nature 440:463-469, Webster R, Leishman D, Walker D. 2002; Towards a drug concentration effect relationship for QT prolongation and torsades de pointes. Curr. Opin. Drug Discov. Devel. 5:116-26).

CYP3A4 = biological target: T2, CYP3A4 (Homo sapiens, UniProt P08684); test: CYP inhibition assay in human liver microsome, CYP3A4; type: in vitro ADME; conditions: human, human liver microsomes, probe midazolam 5 μM, substrate midazolam 5 μM, third value of 2C9/2D6/3A4
T2 construct: tissue BD-Gentest 452117; host or cells: human liver microsomes
Description: (§1) This is a high throughput screening assay used for assessment of reversible inhibition of CYP2C9, CYP2D6, and CYP3A4 activity of test compounds in human liver microsome (HLM) in early discovery stage.
(§2) 10 mM DMSO stock solutions of test compounds were diluted in DMSO to generate 2 mM intermediate stock solution. 250 nL, of intermediate stock solution were transferred in duplicate into 3 separate 384 well microtitre plates (assay-ready plates). A mixture of HLM and each substrate was made up. 45 μL of HLM substrate mix was then transferred to each well of an assay ready plate and mixed. The negative (solvent) and positive controls (standard inhibitor for each CYP) were included in each assay ready plate. The assay ready plate was warmed to 37° C. in an incubator over 10 minutes. 5 μL pre-warmed NADPH regenerating system was added to each incubation well to start the reaction. Final incubation volume was 50 μL. The assay plate then was placed back in the 37° C. incubator. After incubation (10 minutes for CYP2D6) for 5 minutes, incubates were quenched by addition of 50 μL 100% acetonitrile containing internal standards (400 ng/mL 13C6-4′-OH-Diclofenac, 20 ng/mL D3-Dextrorphan and 20 ng/mL D4-1′OH-Midazolam). The supernatants were collected for RapidFire/MS/MS analysis.
(§3) RapidFire online solid phase extraction/sample injection system (Agilent) coupled with API4000 triple quadrupole mass spectrometer (AB Sciex) were used for sample analysis. The mobile phase composed of acetonitrile and water supplemented with 0.1% formic acid. A C4 solid phase extraction cartridge is used for sample separation. MS detection is achieved in positive ion MRM mode.
(§4) Peak areas for substrate, metabolite and internal standard are determined using the RapidFire integrator software (version 3.6.12009.12296). Peak area ratios (PAR) of metabolite and internal standard (stable-labelled metabolite) are then calculated. The measurement window for each experiment is then defined:
(§5) PAR (0% activity)=average PAR for all incubations containing concentrated inhibitor; Par (100% activity)=average PAR for all incubations containing no inhibitor (DMSO controls); % Activity (test inhibitor)=[PAR (test inhibitor)−PAR (0% activity)]/[PAR (100% activity)−PAR (0% activity)]; % Inhibition (test inhibitor)=100-% Activity (test inhibitor).

hTLR9 = biological target: T3, hTLR9 (Homo sapiens, UniProt Q9NR96); set-up: host or cells: HEK; conditions: data disclosed in US20150105370; read-out: HEK/hTLR9 IC50; cited from earlier work
T3 sequence (Q9NR96 26-1032): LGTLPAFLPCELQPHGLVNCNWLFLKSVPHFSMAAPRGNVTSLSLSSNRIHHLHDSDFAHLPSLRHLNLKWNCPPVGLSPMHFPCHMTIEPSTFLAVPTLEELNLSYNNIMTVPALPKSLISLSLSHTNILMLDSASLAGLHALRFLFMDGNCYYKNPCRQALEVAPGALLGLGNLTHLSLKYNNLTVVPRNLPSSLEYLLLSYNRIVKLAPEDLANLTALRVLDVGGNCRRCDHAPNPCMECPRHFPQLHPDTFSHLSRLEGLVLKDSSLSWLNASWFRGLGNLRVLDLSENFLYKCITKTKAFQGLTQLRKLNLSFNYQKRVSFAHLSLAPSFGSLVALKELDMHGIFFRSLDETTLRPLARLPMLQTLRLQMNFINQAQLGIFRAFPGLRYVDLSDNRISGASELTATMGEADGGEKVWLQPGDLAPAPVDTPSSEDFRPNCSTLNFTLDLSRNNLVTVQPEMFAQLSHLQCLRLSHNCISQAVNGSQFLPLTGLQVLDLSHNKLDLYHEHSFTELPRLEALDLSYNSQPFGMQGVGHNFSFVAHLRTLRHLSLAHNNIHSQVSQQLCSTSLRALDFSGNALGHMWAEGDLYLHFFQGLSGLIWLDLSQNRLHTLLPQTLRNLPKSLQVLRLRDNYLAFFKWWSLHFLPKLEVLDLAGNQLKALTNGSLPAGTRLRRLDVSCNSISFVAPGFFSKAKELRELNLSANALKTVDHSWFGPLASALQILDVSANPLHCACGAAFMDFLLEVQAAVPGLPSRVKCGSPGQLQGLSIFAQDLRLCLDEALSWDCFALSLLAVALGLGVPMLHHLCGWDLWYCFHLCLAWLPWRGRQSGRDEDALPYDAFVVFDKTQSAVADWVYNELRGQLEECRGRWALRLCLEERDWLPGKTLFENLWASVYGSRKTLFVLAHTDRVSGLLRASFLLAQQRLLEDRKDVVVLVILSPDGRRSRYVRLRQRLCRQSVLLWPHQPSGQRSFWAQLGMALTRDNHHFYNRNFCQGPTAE

CYP2C9 = biological target: T4, CYP2C9 (Homo sapiens, UniProt P11712); test: CYP inhibition assay in human liver microsome, CYP2C9; type: in vitro ADME; conditions: human, human liver microsomes, probe diclofenac 5 μM, substrate diclofenac 5 μM, first value of 2C9/2D6/3A4
T4 construct: tissue BD-Gentest 452117; host or cells: human liver microsomes
Description: as §1, §2, §3, §4, §5

T1 sequence (Q12809 whole entry): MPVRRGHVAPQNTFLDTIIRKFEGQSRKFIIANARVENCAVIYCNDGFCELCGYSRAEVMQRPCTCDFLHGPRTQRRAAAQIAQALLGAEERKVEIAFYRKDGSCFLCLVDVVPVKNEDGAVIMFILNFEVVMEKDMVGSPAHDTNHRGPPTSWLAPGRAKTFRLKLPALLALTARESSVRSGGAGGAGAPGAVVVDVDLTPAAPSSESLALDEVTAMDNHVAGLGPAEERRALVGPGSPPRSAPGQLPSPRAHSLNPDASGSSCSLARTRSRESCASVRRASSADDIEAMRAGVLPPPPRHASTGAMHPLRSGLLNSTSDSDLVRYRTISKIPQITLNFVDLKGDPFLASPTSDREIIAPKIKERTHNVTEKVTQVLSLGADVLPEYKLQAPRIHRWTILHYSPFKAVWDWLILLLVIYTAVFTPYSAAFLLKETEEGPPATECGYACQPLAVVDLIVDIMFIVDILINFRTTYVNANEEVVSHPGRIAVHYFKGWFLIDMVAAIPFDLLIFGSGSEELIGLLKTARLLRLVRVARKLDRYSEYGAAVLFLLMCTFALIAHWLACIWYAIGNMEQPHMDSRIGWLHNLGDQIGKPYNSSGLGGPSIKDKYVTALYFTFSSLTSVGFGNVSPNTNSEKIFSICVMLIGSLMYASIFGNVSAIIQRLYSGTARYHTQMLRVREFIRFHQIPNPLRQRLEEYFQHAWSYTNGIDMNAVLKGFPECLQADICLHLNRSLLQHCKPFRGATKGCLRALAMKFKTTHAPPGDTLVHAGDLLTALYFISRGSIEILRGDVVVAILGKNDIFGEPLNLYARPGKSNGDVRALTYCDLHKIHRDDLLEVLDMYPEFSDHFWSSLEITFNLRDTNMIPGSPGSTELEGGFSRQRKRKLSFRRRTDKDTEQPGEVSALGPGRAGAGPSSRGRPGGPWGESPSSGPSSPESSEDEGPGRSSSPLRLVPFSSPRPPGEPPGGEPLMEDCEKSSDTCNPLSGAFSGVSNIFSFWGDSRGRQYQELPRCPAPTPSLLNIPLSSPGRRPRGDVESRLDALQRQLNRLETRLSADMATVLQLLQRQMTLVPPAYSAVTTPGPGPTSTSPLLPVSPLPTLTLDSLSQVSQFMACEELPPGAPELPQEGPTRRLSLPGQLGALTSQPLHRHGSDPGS
T4 sequence (P11712 whole entry): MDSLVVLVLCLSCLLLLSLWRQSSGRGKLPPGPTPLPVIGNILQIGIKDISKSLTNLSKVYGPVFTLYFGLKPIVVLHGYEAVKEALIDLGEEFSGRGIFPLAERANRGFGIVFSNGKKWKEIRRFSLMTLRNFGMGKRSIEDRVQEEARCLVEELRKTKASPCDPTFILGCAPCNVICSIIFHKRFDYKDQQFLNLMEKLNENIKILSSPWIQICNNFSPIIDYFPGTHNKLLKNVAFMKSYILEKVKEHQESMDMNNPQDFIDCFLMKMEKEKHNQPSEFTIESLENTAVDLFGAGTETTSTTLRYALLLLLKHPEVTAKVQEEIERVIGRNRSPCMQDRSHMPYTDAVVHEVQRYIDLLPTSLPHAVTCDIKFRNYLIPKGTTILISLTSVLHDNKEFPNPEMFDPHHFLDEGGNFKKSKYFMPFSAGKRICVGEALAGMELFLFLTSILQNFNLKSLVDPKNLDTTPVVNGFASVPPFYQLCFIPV
T2 sequence (P08684 whole entry): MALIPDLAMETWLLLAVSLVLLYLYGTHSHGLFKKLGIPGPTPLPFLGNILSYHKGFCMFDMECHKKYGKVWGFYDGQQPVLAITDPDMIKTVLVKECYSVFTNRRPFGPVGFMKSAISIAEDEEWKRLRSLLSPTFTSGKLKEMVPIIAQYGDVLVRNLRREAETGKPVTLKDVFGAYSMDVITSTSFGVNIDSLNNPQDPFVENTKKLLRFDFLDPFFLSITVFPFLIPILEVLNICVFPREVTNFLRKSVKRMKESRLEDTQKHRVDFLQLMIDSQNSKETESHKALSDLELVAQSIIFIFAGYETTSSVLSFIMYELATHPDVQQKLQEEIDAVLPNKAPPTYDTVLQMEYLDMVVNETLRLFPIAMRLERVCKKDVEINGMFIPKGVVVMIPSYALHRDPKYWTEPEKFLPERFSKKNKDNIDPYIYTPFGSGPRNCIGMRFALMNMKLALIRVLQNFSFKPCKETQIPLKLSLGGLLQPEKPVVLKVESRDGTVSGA

inhibition at 5 min, 10 µM (CYP3A4): 5.5%
inhibition at 5 min, 10 µM (CYP2C9): 29.5%
SMILES: C[C@@H]1CN(c2ccc(C#N)c3ncccc23)C[C@H](CN2CCN(c3ccncc3)CC2)O1 [ER-888286, reference compound]
safety window (hERG IC20/TLR7/8/9 IC50) compared to the compounds of this invention (hERG channel; result in words): much narrower safety window
hERG IC20/TLR7 IC50 (hERG channel; safety ratio): 0.3
hERG IC20/TLR9 IC50 (hERG channel; safety ratio): 0.2
IC50 (hTLR9): > 2000 nM
